Structures can show the parent of a compound that is named as a salt.
Key:
Kainate (KA) receptor = experiment: [^3 H]kainate (KA) receptor subclass binding assay, synaptic plasma membranes; settings: 0.5 nM [^3 H]kainate; SPM; pH 7.4; 0-4° C., 60 min
Method: (§1) Synaptic plasma membranes (SPM) were prepared as previously described [Monahan, J.B. and Michel, J., "Identification and Characterization of an N-methyl-D-aspartate-specific L[^3 H]glutamate Recognition Site in Synaptic Plasma Membranes, J. Neurochem., 48, […] (1987)]. The SPM were stored at a concentration of 10-15 mg/ml in 0.32M sucrose, 0.5 mM EDTA, 1 mM MgSO4, 5 mM Tris/SO4, pH 7.4, under liquid nitrogen. The identity and purity of the subcellular fractions were confirmed by both electron microscopy and marker enzymes. Protein concentrations were determined by using a modification of the method of Lowry [Ohnishi, S.T. and Barr, J.K., "A Simplified Method of Quantitating Proteins Using the Biuret and Phenol Reagents", anal. Biochem., 86, 193-197 (1978)]. The SPM were treated identically for the [^3 H]AMPA (QUIS), [3H]kainate and sodium-dependent L-[^3 H]-glumatate binding assays. […] Beckman MP scintillation cocktail containing 7 mL/1 acetic acid was then added and the samples counted on a Beckman LS 5800 or 3801 liquid scintillation counter with automatic corrections for quenching and counting efficiency. […] Radioligand binding to the synaptic plasma membranes was analyzed using Scatchard and Hill transformations and the Ki values of the compounds determined using logit-log transformations. […]

[1] = molecular target: NMDA receptor (N-methyl-D-aspartate-specific L-[^3 H]glutamate recognition site in synaptic plasma membranes); experiment: NMDA-Selective Glutamate Binding Assay ([^3 H]GLU)
Method: as §1

[2] = molecular target: [^3 H]MK-801 binding, rat SPM (synaptic plasma membranes); experiment: [^3 H]MK-801 Binding assay (modulation of [^3 H]MK-801 binding); settings: 5.0 nM [^3 H]MK-801, L-glutamate 10.0 nM; Triton X-100 treated rat SPM; pH 7.4; 25° C., 30 min
Method: Modulation of [^3 H]MK-801 binding was performed using Triton X-100 (0.04% v/v) treated rat SPM that had been extensively washed. Assay incubations were at 25° C. for 30 min. and contained 5.0 nM [^3 H]MK-801, L-glutamate (10.0 nM), and various concentrations of the tested compounds in 50 mM Tris/acetate, pH 7.4. The assay was stopped by rapid filtration, using Brandel MB-48 Harvester, through Whatman GF/B filters treated with 0.05% polyethylenimine and the samples washed four times with 2.0 mL cold buffer. The radioactivity associated with the filter was determined by liquid scintillation spectrometry. Nonspecific binding was defined using 60 μM MK-801. IC50 were determined using a logit-log transformation of the binding data.

KA Ki (Kainate (KA) receptor) | Ki ([1]; NMDA-specific L-[^3 H]glutamate 12.5 nM, Triton X-100 treated SPM, pH 7.4, 0-4° C., 10 min) | Ki [2] | [^3 H]GLU % inhibition ([1]; @ 10 μM) | Structure (SMILES)
> 10 µM | 0.7 µM | 0.28 µM |  | O=C(O)c1cn2c(n1)NCCC2CP(=O)(O)O (stereo not shown) [Example 1, 5-Phosphonomethyl-5,6,7,8-tetrahydro-imidazo [1,2-a]pyrimidine-2-carboxylic acid, ammonium salt]
 |  |  | 42% | O=C(O)c1cn2c(n1)NC(CP(=O)(O)O)CC2 (stereo not shown) [Example 2, 7-phosphonomethyl-5,6,7,8-tetrahydro-imidazo[1,2-a]pyrimidine-2-carboxylicacid]

— patent US5252563A, “5,6,7,8-tetrahydro-imidazo[1,2-a]pyrimidine compounds for treatment of neurotoxic injury” (G. D. Searle & Company, priority 1991, dated 1993)
